Counter-ions that a name gives are not always drawn.

For 24 compounds, melting point results are on record in patent publication US6897219B2, “Heteroaryl diazacycloalkanes, their preparation and use” (priority 1997, dated 2005).

Consider `CCCOc1cncc(N2CCCNCCC2)c1` (as salt: fumaric acid salt), for which the melting point (usually the temperature of the solid-liquid transition) was in the range of 150 to 152 °C.
To `COc1cncc(N2CCNCC2)c1` (as salt: fumaric acid salt) [Compound 3B, 1-(5-Methoxy-3-pyridyl)-piperazine] belongs 168.5 to 170.5 °C; to `c1cncc(-c2cncc(N3CCCNCC3)c2)c1` (as salt: fumaric acid salt), 160 to 162 °C.
`CCCCCOc1cncc(N2CCCN(C)CC2)c1` (as salt: fumaric acid salt) [Compound 15E, 4-Methyl-1-(5-pentyloxy-3-pyridyl)-homopiperazine] had a melting point of 129 to 130.8 °C.
The result for `CCOc1cncc(N2CCN(CC)CC2)c1` (as salt: fumaric acid salt) [Compound 9D, 1-(5-Ethoxy-3-pyridyl)-4-ethyl-piperazine] reads 144.8 to 145.9 °C.
`COc1ccc(N2CCCNCC2)cn1` (as salt: fumaric acid salt): the melting point lay within 127 to 128 °C.
To `c1ccc2ncc(N3CCNCC3)cc2c1` belongs 87.7 to 88.5 °C; to `CN1CCN(c2cncc(Cl)c2)CC1` (as salt: fumaric acid salt) [Compound 5A, 1-(5-Chloro-3-pyridyl)-4-Methyl-piperazine], 162 to 163 °C.
In turn, `c1cncc(N2CCCNCC2)c1` (as salt: fumaric acid salt) [Compound 1F, 1-(3-Pyridyl)-homopiperazine] yielded a melting point of 172.1 to 172.9 °C.
The result for `c1ccc2nc(N3CCCNCC3)cnc2c1` (as salt: fumaric acid salt) [Compound 2L, 1-(2-Quinoxalinyl)-homopiperazine] reads 177 to 180 °C; that for `C=COc1cncc(N2CCNCC2)c1` (as salt: fumaric acid salt), 136.4 to 138.2 °C.
To `COc1cncc(N2CCCNCC2)c1` (as salt: fumaric acid salt) [Compound 1H, 1-(5-Methoxy-3-pyridyl)-homopiperazine] belongs 161 to 162 °C.
`C#Cc1cncc(N2CCCNCC2)c1` (as salt: fumaric acid salt) gave a melting point of 172.5 to 174 °C.
The result for `CN1CCN(c2cccnc2)CC1` (as salt: fumaric acid salt) [Compound 1A, 4-Methyl-1-(3-pyridyl)-piperazine] reads 144.5 to 145.9 °C; that for `COc1cncc(N2CCN(C)C2)c1` (as salt: fumaric acid salt) [Compound 1M, 1-(5-Methoxy-3-pyridyl)-3-methyl-imidazolidine], 139 to 142 °C; that for `c1ncc(N2CCCNCC2)cc1OC1CCCC1` (as salt: fumaric acid salt), 148 to 150 °C.
In turn, `CCN1CCCN(c2cccnc2)CC1` (as salt: fumaric acid salt) yielded a melting point of 145.3 to 147.5 °C.
To `Brc1cncc(N2CCCNCC2)c1` (as salt: fumaric acid salt) belongs 180.7 to 185.4 °C; to `CN1CCN(c2cncc(-c3ccccc3)c2)CC1` (as salt: fumaric acid salt) [Compound 6A, 4-Methyl-1-(5-phenyl-3-pyridyl)-piperazine], 179 to 180 °C; to `C=COc1cncc(N2CCN(C)CC2)c1` (as salt: fumaric acid salt), 136.4 to 138.2 °C.
To `COc1cncc(N2CCCNC(C)CC2)c1` (stereo not drawn) (as salt: fumaric acid salt) [Compound 11A] belongs 137 to 139 °C; to `CC(C)COc1cncc(N2CCCNCC2)c1` (as salt: fumaric acid salt) [Compound 6H, 1-[5-(2-Methyl-propoxy)-3-pyridyl]-homopiperazine], 121.9 to 123.3 °C.
The result for `CCCCOc1cncc(N2CCN(C)CC2)c1` (as salt: fumaric acid salt) reads 136.9 to 139.2 °C; that for `c1ccn(-c2cncc(N3CCCNCC3)c2)c1` (as salt: fumaric acid salt), 174 to 175 °C.
